# Source: patent US8575142B2, “Agent for improving insulin resistance” (Morinaga Milk Industry Co., Ltd., priority 2005, dated 2013)
# Where “and” joins values, the source holds several entries; their conditions need not be identical. Equal values may be shown once.
# What was measured:
# Type in all cases: in vivo
# MCP-1 = MCP-1 production by epididymal fat tissues collected from treated insulin-resistant AKR mice (ELISA); conditions: for MCP-1: culture supernatant of epididymal fat tissue after 1 hour culture, 60th day of oral administration, 25 μg/kg once a day; for Effect on production of MCP-1 as compared with negative sample group: fat tissues, 60th day, 25 μg/kg oral once a day, Tukey-Kramer's test
# Description: (§1) The present example was performed by using AKR mice to which insulin resistance was induced by feeding with a high-fat diet, to evaluate the effects of the agent for amelioration insulin resistance of the present invention on production of TNF-α and MCP-1 from respective cells of fat tissues.
# (§2) In Example 2, the same test samples and negative sample as those prepared in Example 1 were used.
# (§3) After that, the mice were divided into groups of 8 mice each. Each of the groups of mice was orally administered with 1 ml per 40 g of body weight (25 μg/kg of body weight) of a test sample or the negative sample once a day using a sonde. […] After 1 hour of the culture, culture supernatants were collected, and concentrations of TNF-α and MCP-1 in the culture supernatants were measured by ELISA (Biosource).
# TNF-α = TNF-α production by epididymal fat tissues collected from treated insulin-resistant AKR mice (ELISA); conditions: for TNF-α: culture supernatant of epididymal fat tissue after 1 hour culture, 60th day of oral administration, 25 μg/kg once a day; for Effect on production of TNF-α as compared with negative sample group: fat tissues, 60th day, 25 μg/kg oral once a day, Tukey-Kramer's test
# Description: as §1, §2, §3
# [1] = system: AKR mice to which insulin resistance was induced by feeding with a high-fat diet; assay: Insulin tolerance test in AKR mice with high-fat-diet-induced insulin resistance; conditions: 45th day of oral administration, 25 μg/kg once a day; 4 hours fasted; 0.75 U/kg human insulin intraperitoneally; up to 60 minutes; compared with negative sample
# Description: The present example was performed by using AKR mice to which insulin resistance was induced by feeding with a high-fat diet, to confirm an enhancing effect of the agent for improving insulin resistance of the present invention on insulin sensitivity by performing an insulin tolerance test.
# In Example 3, the same test samples and negative sample as those prepared in Examples 1 and 2 were used.
# After that, the mice were divided into groups of 8 mice each. Each of the groups of mice was orally administered with 1 ml per 40 g of body weight (25 μg/kg of body weight) of a test sample or the negative sample once a day using a sonde. […] The insulin tolerance test in the present example was performed in such a manner that: the mice were fasted for 4 hours, and were then intraperitoneally administered with 0.75 U/kg of body weight of a human insulin (Eli Lily and Company); and changes with time in blood glucose level were measured from the initiation of the administration of insulin to after 60 minutes later.
# [2] = system: AKR mice to which insulin resistance was induced by feeding with a high-fat diet; assay: Level of free fatty acid in serum of AKR mice with high-fat-diet-induced insulin resistance; conditions: 60th day of oral administration; for Free fatty acid: mouse serum, under fasting, 25 μg/kg of body weight once a day; for Test sample/negative sample (free fatty acid level in serum): relative to negative sample group, 25 μg/kg once a day
# Description: Compound 3 (4-methylcholest-7-en-3-ol), Compound 4 (4-methylergost-7-en-3-ol), and Compound 5 (4-methylstigmast-7-en-3-ol) which were produced in Preparation Example 1 were each dissolved in DMSO and adjusted with distilled water to each have a concentration of 1 μg/ml, to thereby prepare Test Samples 1, 2, and 3. In this case, DMSO was adjusted to have a final concentration of 0.2%.
# After that, the mice were divided into groups of 8 mice each. Each of the groups of mice were orally administered with 1 ml per 40 g of body weight (25 μg/kg of body weight) of a test sample or the negative sample once a day using a sonde.
Compound,MCP-1 (MCP-1) [pg/mL],Effect on production of MCP-1 as compared with negative sample group (MCP-1),TNF-α (TNF-α) [pg/mL],Effect on production of TNF-α as compared with negative sample group (TNF-α),Change in blood glucose level after administration of insulin (FIG. 1) [1],Free fatty acid [2] [mEp/l],Test sample/negative sample (free fatty acid level in serum) [2]
"CC(C)CCCC(C)C1CCC2C3=CCC4C(C)C(O)CCC4(C)C3CCC21C (stereo not drawn) [Test Sample 1, 4-methylcholest-7-en-3-ol]",100.86 ± 8.31,significant inhibitory effects,33.73 ± 1.68,significant inhibitory effects,rapid reduction in blood glucose levels,1.35 ± 0.23,86.4% and 84.5%
"CC(C)C(C)CCC(C)C1CCC2C3=CCC4C(C)C(O)CCC4(C)C3CCC21C (stereo not drawn) [Test Sample 2, 4-methylergost-7-en-3-ol]",95.56 ± 10.56,significant inhibitory effects,32.71 ± 1.70,significant inhibitory effects,rapid reduction in blood glucose levels,1.21 ± 0.22,81.6%
"CCC(CCC(C)C1CCC2C3=CCC4C(C)C(O)CCC4(C)C3CCC21C)C(C)C (stereo not drawn) [Test Sample 3, 4-methylstigmast-7-en-3-ol]",87.80 ± 9.24,significant inhibitory effects,29.80 ± 3.82,significant inhibitory effects,rapid reduction in blood glucose levels,0.90 ± 0.15,60.8%
